In one assay the target is T1, HDAC1 (Homo sapiens, UniProt Q13547).
T1 construct: made in house
Briefly: HDAC1 assay (Fluor-de-Lys fluorescent deacetylase assay). Type of assay: biochemical. The note with it: read-out: hHDAC IC50. The protocol: The HDAC1 assay is used to quantify the histone deacetylase (HDAC) activity. The assay is performed in 384 well microtiter plates by pre-incubating serial dilutions of the compounds with a fixed concentration of HeLa nuclear extract or purified HDAC1 and then adding an acetylated lysine-containing substrate/developer that fluoresces upon deacetylation.
Reagents of the HDAC Fluorescent Activity Assay are purchased from BioMol Research Laboratories (Plymouth Meeting, Pa.) and feature the Fluor-de-Lys™ Substrate/Developer System.
TSA Stock: TSA is provided as a 10 mM stock solution in 100% dimethylsulfoxide (DMSO). […] The final concentration in the assay is 20 uM.
3 uM [final] TSA to this solution increases its ability to stop the reaction.
HDAC1 Working Solution: The HDAC1 enzyme is diluted in assay buffer prior to each use from a fresh aliquot of enzyme. The final concentration in the assay is 1-2 nM.
Compounds: Test compounds are directly transferred from a 100% DMSO solution into assay plates by spotting nanoliters of solutions by an acoustic dispenser (ATS-100, EDC biosystems, US).
HeLa cells transiently transfected with pCDNA3-HDAC1-FLAG are grown to 80% confluence on 10 cm culture dishes in DMEM, 10% Fetal bovine serum supplemented with antibiotics and glutamine. Cells are washed with 10 ml cold PBS and scraped into 2 ml of PBS. Cells are centrifuged for 5 minutes at 800×g at 4° C., washed with 30 ml PBS and resuspended in 10 ml PBS, counted, re-centrifuged and frozen at −80° C.
The frozen cell pellet is re-suspended in 1 ml of hypotonic lysis buffer (LB: 20 mM Hepes pH7.9, 0.25 mM EDTA, 10% glycerol) containing COMPLETE protease inhibitor and incubated on ice for 15 minutes, followed by homogenization on a 2-ml DounceB homogenizer (25 strokes). 150 mM KCl and 0.5% NP-40 are added to the homogenate and the solution is sonicated twice for 30 seconds (output5/6, duty cycle 90) and incubated for 1 hour at 4° C. After a 30 minutes centrifugation at 12000 rpm and 4° C. the supernatant (soluble extract) is collected and protein concentration is determined using the BIORAD assay.
Anti-FLAG M2 affinity resin (Sigma) is washed three times with TBS and twice with LB. 10 μl of the LB-washed resin/mg of protein (2-3 ug of Flagged-HDAC1) are added to the soluble extract (1 mL) and incubated overnight at 4° C. with gentle mixing. The resin is then collected by centrifugation, washed once with LB, twice with LB+0.1% NP40 and twice with elution buffer (50 mM Hepes pH 7.4, 5% glycerol, 100 mM KCl, 0.01% Triton X-100).
The concentration of purified HDAC is determined by Western blot analysis.

In a further assay the test system is HDAC in Hela cells. Briefly: HDAC Hela Cell Based assay.
In assay [1] the test system is human γ-globin promoter (EGFP reporter) in K562 cells. Briefly: HbF activation assay on K562 (EGFP/RFP reporter model system for screening of inducers of fetal hemoglobin). Type of assay: cell-based. The note with it: 60 hours. The source says: In order to test several compounds, a model system was produced based on previous findings present in the literature. The K562 erythroid-like cell lines, isolated and characterized by Lozzio & Lozzio (Blood, 45(3), pp 321-334) from a patient with chronic myelogenous leukemia in blast crisis, have been extensively employed as a useful in vitro model to study the molecular mechanism(s) regulating the expression of embryonic and fetal human globin genes, as well as for screening of new differentiation-inducing compounds. A stable cell line where reporter genes encoding green EGFP and far-red fluorescent protein red-FP are placed under the control of the human γ-globin or β-globin promoters respectively was used (see Vadolas et al, Hum. Mol. Genet. 2004, 13, 2, 223-233 for details). The modified 3-cluster also contains the upstream regulatory region called LCR. This cell line grows in suspension at 37° C. and 5% CO2 in humidified atmosphere in the following medium: DMEM, 10% foetal bovine serum, glutamine and antibiotics (penicillin and streptomycin);
The assay procedures is as follows: • Single concentration compounds or serially diluted samples are transferred to an empty assay plates by a spotter (ATS-100, EDC Biosystems, USA) in order to have a final concentration of DMSO of 0.25% in 50 μL of cell culture. Source plats contains compounds dissolved in 100% DMSO • Black, transparent bottom, 384 wells, tissue culture treated plates are used as assay plates. • Assay plates containing spotted compounds are filled with a suspension of cell in the described assay medium. The final cell concentration is of 1000 cells per well. • Cells are incubated in humidified atmosphere, 37° C.-5% CO2, for 60 hours • Cell nuclei are stained by adding 10 ul (6 μM; 1 μM final) Hoechst 33342 (Life Technologies, USA) • The cell associated intensity is read by a plate based cytometer (ACUMEN explorer, TTP Labtech, UK) • The nuclei count is used to assess the cell proliferation/death and to normalize the total EGFP/RFP intensity. HbF Activation Assay in Human Cell Line K562
The compounds of the invention were tested in the HbF activation assay on K562, as model system for screening of potential inducers of fetal hemoglobin.

For orientation: IC50 means the concentration that gives 50% inhibition. In general, EC50 refers to the concentration at which the effect is half-maximal. Higher therefore signals a less potent agent.

T1 sequence (Q13547 whole entry): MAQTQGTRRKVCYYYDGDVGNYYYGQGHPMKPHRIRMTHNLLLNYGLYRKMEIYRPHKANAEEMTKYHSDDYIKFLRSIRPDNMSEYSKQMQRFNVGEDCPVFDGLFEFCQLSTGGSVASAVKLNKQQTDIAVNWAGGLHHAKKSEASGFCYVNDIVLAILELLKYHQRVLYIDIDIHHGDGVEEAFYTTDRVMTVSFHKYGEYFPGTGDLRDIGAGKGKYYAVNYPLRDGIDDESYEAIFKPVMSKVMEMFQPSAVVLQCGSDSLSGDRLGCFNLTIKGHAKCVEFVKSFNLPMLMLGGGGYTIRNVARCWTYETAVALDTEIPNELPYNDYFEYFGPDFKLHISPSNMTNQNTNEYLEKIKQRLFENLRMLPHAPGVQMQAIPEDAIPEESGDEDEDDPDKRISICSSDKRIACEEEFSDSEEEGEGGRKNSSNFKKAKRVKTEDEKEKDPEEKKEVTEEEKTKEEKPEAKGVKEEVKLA

With `CCC(=O)CCCCC[C@H](NC(=O)C1CCN(C)CC1)c1ncc(-c2cc3ccccc3nc2OC)o1` [Compound 39], the IC50 at HDAC1 and in the assay on HDAC in Hela cells was under 0.1 µM each time. In assay [1], this compound yielded an EC50 of 0.1 to 1 µM.
Take `CCC(=O)CCCCC[C@H](NC(=O)Cn1nc(C)cc1C)c1ncc(-c2cc3ccccc3nc2OC)o1` [Compound 81, (S)-2-(3,5-dimethyl-1H-pyrazol-1-yl)-N-(1-(5-(2-methoxyquinolin-3-yl)oxazol-2-yl)-7-oxononyl)acetamide]: the IC50 on HDAC1 was under 0.1 µM; in the assay with HDAC in Hela cells, 0.1 to 1 µM. The compound further returned a 50% effective concentration (EC50) in assay [1] of over 1 µM.
On to `CCC(=O)CCCCC[C@H](NC(=O)C1CN(Cc2ccccc2)C1)c1ncc(-c2cc3ccccc3nc2OC)o1` [Compound 56, (S)-1-benzyl-N-(1-(5-(2-methoxyquinolin-3-yl)oxazol-2-yl)-7-oxononyl)azetidine-3-carboxamide], for which the IC50 on HDAC1 was under 0.1 µM; in the assay with HDAC in Hela cells it was 0.1 to 1 µM. Moreover, the half-maximal effective concentration (EC50) in assay [1] was over 1 µM.
The like results for `CCC(=O)CCCCC[C@H](NC(=O)C(=O)N1CCN(C)CC1)c1nnc(-c2cc3ccccc3nc2OC)o1` [Compound 46, (S)-N-(1-(5-(2-methoxyquinolin-3-yl)-1,3,4-oxadiazol-2-yl)-7-oxononyl)-2-(4-methylpiperazin-1-yl)-2-oxoacetamide] were, in that order, under 0.1 µM, 0.1 to 1 µM and over 1 µM.
The like results for `CCC(=O)CCCCC[C@H](NC(=O)Cc1c(C)[nH]c2ccc(OC)cc12)c1ncc(-c2cc3ccccc3nc2OC)o1` [Compound 1, (S)-2-(5-methoxy-2-methyl-1H-indol-3-yl)-N-(1-(5-(2-methoxyquinolin-3-yl)oxazol-2-yl)-7-oxononyl)acetamide] were, in that order, under 0.1 µM, 0.1 to 1 µM and over 1 µM.
The like results for `CCC(=O)CCCCC[C@H](NC(=O)Cn1cncn1)c1ncc(-c2cc3ccccc3nc2OC)o1` [Compound 86, (S)-N-(1-(5-(2-methoxyquinolin-3-yl)oxazol-2-yl)-7-oxononyl)-2-(1H-1,2,4-triazol-1-yl)acetamide] were, in that order, under 0.1 µM, 0.1 to 1 µM and over 1 µM.
Turning to `CCC(=O)CCCCC[C@H](NC(=O)c1ccnn1C)c1ncc(-c2cc3ccccc3nc2OC)o1` [Compound 87, (S)-N-(1-(5-(2-methoxyquinolin-3-yl)oxazol-2-yl)-7-oxononyl)-1-methyl-1H-pyrazole-5-carboxamide], the IC50 at HDAC1 is under 0.1 µM; in the assay on HDAC in Hela cells, 0.1 to 1 µM. In assay [1], this compound registered an EC50 of 0.1 to 1 µM.
For `CCC(=O)CCCCC[C@H](NC(=O)C(C)(C)N(C)C)c1ncc(-c2ccccc2)o1` [Compound 9, (S)-2-(dimethylamino)-2-methyl-N-(7-oxo-1-(5-phenyloxazol-2-yl)nonyl)propanamide], the IC50 at HDAC1 is under 0.1 µM; with HDAC in Hela cells, over 1 µM. Further, the EC50 in assay [1] was over 1 µM.
With `CCC(=O)CCCCC[C@H](NC(=O)CC1CN(C)C1)c1ncc(-c2cc3ccccc3nc2OC)o1` [Compound 108, (S)-N-(1-(5-(2-methoxyquinolin-3-yl)oxazol-2-yl)-7-oxononyl)-2-(1-methylazetidin-3-yl)acetamide], the IC50 on HDAC1 and in the assay with HDAC in Hela cells was under 0.1 µM each time. The compound also displayed a half-maximal effective concentration (EC50) in assay [1] of 0.1 to 1 µM.
Take `CCC(=O)CCCCC[C@H](NC(=O)Cc1nccs1)c1ncc(-c2cc3ccccc3nc2OC)o1` [Compound 76, (S)-N-(1-(5-(2-methoxyquinolin-3-yl)oxazol-2-yl)-7-oxononyl)-2-(thiazol-2-yl)acetamide]: the half-maximal inhibitory concentration (IC50) is under 0.1 µM on HDAC1 and 0.1 to 1 µM in the assay with HDAC in Hela cells. The EC50 in assay [1] was over 1 µM.
Consider `CCC(=O)CCCCC[C@H](NC(=O)CCN(C)C)c1nnc(-c2cc3ccccc3nc2OC)o1` [Compound 51, (S)-3-(dimethylamino)-N-(1-(5-(2-methoxyquinolin-3-yl)-1,3,4-oxadiazol-2-yl)-7-oxononyl)propanamide], for which the values for the IC50 on HDAC1 and in the assay with HDAC in Hela cells were under 0.1 µM and 0.1 to 1 µM, respectively. The concentration for a half-maximal effect (EC50) in assay [1] was over 1 µM.
The like results for `CCC(=O)CCCCC[C@H](NC(=O)C1CCN1C)c1ncc(-c2cc3ccccc3nc2OC)o1` (stereo partly drawn) [Compound 85, N-((S)-1-(5-(2-methoxyquinolin-3-yl)oxazol-2-yl)-7-oxononyl)-1-methylazetidine-2-carboxamide] were, in that order, under 0.1 µM, 0.1 to 1 µM and over 1 µM.
In the case of `CCC(=O)CCCCC[C@H](NC(=O)C1CN(C)C1)c1ncc(-c2ccc(-c3ccc(OC)nc3)cc2)o1` [Compound 65, (S)-N-(1-(5-(4-(6-methoxypyridin-3-yl)phenyl)oxazol-2-yl)-7-oxononyl)-1-methylazetidine-3-carboxamide], the results for the 50% inhibitory concentration (IC50) on HDAC1 and with HDAC in Hela cells were under 0.1 µM and 0.1 to 1 µM, respectively. Besides, the EC50 in assay [1] is over 1 µM.
The like results for `CCC(=O)CCCCC[C@H](NC(=O)C(C)n1cccn1)c1ncc(-c2cc3ccccc3nc2OC)o1` (stereo partly drawn) [Compound 102, N-((S)-1-(5-(2-methoxyquinolin-3-yl)oxazol-2-yl)-7-oxononyl)-2-(1H-pyrazol-1-yl)propanamide] were, in that order, under 0.1 µM, 0.1 to 1 µM and over 1 µM.
The like results for `CCC(=O)CCCCC[C@H](NC(=O)C1CCN(C)C1)c1ncc(-c2ccccc2)o1` (stereo partly drawn) [Compound 8, 1-methyl-N-((S)-7-oxo-1-(5-phenyloxazol-2-yl)nonyl)pyrrolidine-3-carboxamide] were, in that order, under 0.1 µM, over 1 µM and over 1 µM.
As to `CCC(=O)CCCCC[C@H](NC(=O)C1CNC(=O)C1)c1ncc(-c2cc3ccccc3nc2OC)o1` (stereo partly drawn) [Compound 72, N-((S)-1-(5-(2-methoxyquinolin-3-yl)oxazol-2-yl)-7-oxononyl)-5-oxopyrrolidine-3-carboxamide], the values for the half-maximal inhibitory concentration (IC50) on HDAC1 and with HDAC in Hela cells were under 0.1 µM and 0.1 to 1 µM, respectively. The compound further returned an EC50 in assay [1] of 0.1 to 1 µM.
Take `CCC(=O)CCCCC[C@H](NC(=O)c1cncs1)c1nnc(-c2cc3ccccc3nc2OC)o1` [Compound 49, (S)-N-(1-(5-(2-methoxyquinolin-3-yl)-1,3,4-oxadiazol-2-yl)-7-oxononyl)thiazole-5-carboxamide]: the IC50 in the assay on HDAC in Hela cells is 0.1 to 1 µM. Besides, in assay [1], the EC50 was over 1 µM.
Turning to `CCC(=O)CCCCC[C@H](NC(=O)Cc1nonc1C)c1ncc(-c2cc3ccccc3nc2OC)o1` [Compound 77, (S)-N-(1-(5-(2-methoxyquinolin-3-yl)oxazol-2-yl)-7-oxononyl)-2-(4-methyl-1,2,5-oxadiazol-3-yl)acetamide], the IC50 was under 0.1 µM at HDAC1 and 0.1 to 1 µM in the assay on HDAC in Hela cells. Moreover, in assay [1], the EC50 is over 1 µM.

For the origin of these results see patent US9371295B2, “Compounds for use in the treatment of disorders that are ameliorated by inhibition of HDAC” (IRBM—Science Park S.p.A., priority 2012, dated 2016).
